Results reported in ChEMBL document CHEMBL3797038, “Synthesis and pharmacological evaluation of new biphenylic derivatives as CB2 receptor ligands” (Eur J Med Chem, 2016).
Active and inactive are the calls of the source. No cut-off for these calls is given here.

Experiments:
Cannabinoid receptor 1 = Cannabinoid receptor 1 (Homo sapiens, UniProt P21554); test: Displacement of [3H]CP55940 from human CB1 receptor expressed in CHO cell membranes after 2 hrs
Cannabinoid receptor 2 [1] = target: T1, Cannabinoid receptor 2 (Homo sapiens, UniProt P34972); test: Displacement of [3H]CP55940 from human CB2 receptor expressed in CHO cell membranes after 2 hrs
T1 sequence (P34972 whole entry): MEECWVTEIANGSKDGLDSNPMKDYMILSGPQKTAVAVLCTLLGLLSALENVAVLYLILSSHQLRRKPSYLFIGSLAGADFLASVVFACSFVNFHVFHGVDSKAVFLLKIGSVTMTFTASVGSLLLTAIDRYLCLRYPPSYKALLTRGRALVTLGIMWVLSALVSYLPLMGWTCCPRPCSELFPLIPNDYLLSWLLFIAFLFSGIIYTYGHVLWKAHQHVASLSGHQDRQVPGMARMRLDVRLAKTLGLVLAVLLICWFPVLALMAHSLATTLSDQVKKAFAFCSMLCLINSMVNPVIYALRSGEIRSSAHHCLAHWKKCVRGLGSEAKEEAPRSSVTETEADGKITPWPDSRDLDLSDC

Cannabinoid receptor 2 [2] = target: T1, Cannabinoid receptor 2; test: Agonist activity at human CB2 receptor expressed in CHO cell membranes after 90 mins by [35S]GTPgammaS binding assay; format: functional
CHO = test: Selectivity index, ratio of Ki for human CB1 receptor expressed in CHO cell membranes to Ki for human CB2 receptor expressed in CHO cell membranes; format: cell-based
Cannabinoid receptor 2 [3] = target: T1, Cannabinoid receptor 2; test: Inverse agonist activity at human CB2 receptor expressed in CHO cell membranes after 90 mins by [35S]GTPgammaS binding assay; format: functional
Cannabinoid receptor 2 [4] = target: T1, Cannabinoid receptor 2; test: Neutral antagonist activity at human CB2 receptor expressed in CHO cell membranes after 90 mins by [35S]GTPgammaS binding assay; format: functional
Cannabinoid receptor 2 [5] = target: T1, Cannabinoid receptor 2; test: Protean agonist activity at human CB2 receptor expressed in CHO cell membranes after 90 mins by [35S]GTPgammaS binding assay; format: functional
Cannabinoid receptor 2 [6] = target: T1, Cannabinoid receptor 2; test: Competitive antagonist activity at human CB2 receptor expressed in CHO cell membranes assessed as inhibition of N-cycloheptyl-4-methoxy-5-methylbiphenyl-3-carboxamide-mediated receptor stimulation by [35S]GTPgammaS binding assay; format: functional
Cannabinoid receptor 2 [7] = target: T1, Cannabinoid receptor 2; test: Inhibition of N-cycloheptyl-4-methoxy-5-methylbiphenyl-3-carboxamide maximal response at human CB2 receptor expressed in CHO cell membranes by [35S]GTPgammaS binding assay; format: functional
Cannabinoid receptor 2 [8] = target: T1, Cannabinoid receptor 2; test: Neutral antagonist activity at human CB2 receptor expressed in CHO cell membranes up to 10 uM after 90 mins by [35S]GTPgammaS binding assay; format: functional
Cannabinoid receptor 2 [9] = target: T1, Cannabinoid receptor 2; test: Antagonist activity at human CB2 receptor expressed in CHO cell membranes assessed as inhibition of HU-210 mediated-stimulation at 1 to 10 uM by [35S]GTPgammaS binding assay; format: functional

Chain of Cannabinoid receptor 1 (P21554 whole entry): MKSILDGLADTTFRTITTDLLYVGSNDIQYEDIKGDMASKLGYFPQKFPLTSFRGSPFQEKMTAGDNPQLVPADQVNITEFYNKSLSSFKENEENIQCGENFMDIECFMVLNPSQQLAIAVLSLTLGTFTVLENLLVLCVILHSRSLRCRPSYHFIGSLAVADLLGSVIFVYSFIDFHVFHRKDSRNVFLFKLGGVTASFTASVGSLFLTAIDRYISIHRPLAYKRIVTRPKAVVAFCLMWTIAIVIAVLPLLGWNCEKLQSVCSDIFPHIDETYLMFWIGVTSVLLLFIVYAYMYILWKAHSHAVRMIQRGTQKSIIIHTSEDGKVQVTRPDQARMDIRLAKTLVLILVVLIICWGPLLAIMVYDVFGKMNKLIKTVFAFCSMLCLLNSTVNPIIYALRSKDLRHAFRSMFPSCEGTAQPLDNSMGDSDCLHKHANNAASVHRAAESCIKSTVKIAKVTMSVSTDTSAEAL

Which Ki (Cannabinoid receptor 1) does the source give for `CCCCc1cc(-c2ccccc2)cc(C(=O)N[C@H]2CC[C@H](C)CC2)c1OC` here?
Its Ki is 3.61 µM.

What about the Ki (Cannabinoid receptor 2 [1]) of the same molecule?
Its Ki is 2.39 µM.

Which Ki (Cannabinoid receptor 2 [1]) does the source give for `C=CCc1cc(NC(=O)CCCCCCCCCCC)c(O)c(-c2ccc(OC)c(CC=C)c2)c1` here?
Its Ki is over 10 µM.

`C=CCc1ccc(OC)c(-c2ccc(O)c(CC=C)c2)c1` was tested. Which Activity (Cannabinoid receptor 2 [2]) did it give?
Its Activity is “Active”.

For `COc1c(Cc2ccc(F)cc2)cc(-c2ccc(F)cc2)cc1C(=O)NC1CCCCCC1`, which Ki (Cannabinoid receptor 1) is on record?
The Ki was 2.83 µM.

And the Ki (Cannabinoid receptor 2 [1])?
The Ki was 0.265 µM.

What about the Selectivity Index (CHO) of the same molecule?
The Selectivity Index was 10.7.

What about the Activity (Cannabinoid receptor 2 [3]) of the same molecule?
Its Activity is “Active”.

Which Ki (Cannabinoid receptor 1) does the source give for `COc1c(Cc2ccc(F)cc2)cc(-c2ccccc2)cc1C(=O)NC1CCCCCC1` here?
The Ki was 0.904 µM.

And the Ki (Cannabinoid receptor 2 [1])?
The Ki was 0.0841 µM.

And the Selectivity Index (CHO)?
Its Selectivity Index is 10.7.

And the Activity (Cannabinoid receptor 2 [3])?
The Activity was “Active”.

How did the Activity (Cannabinoid receptor 2 [2]) turn out when `COc1c(C)cc(-c2ccc(F)cc2)cc1C(=O)NC1CCCCCC1` was run?
Its Activity is “Active”.

`CCCCc1cc(-c2ccc(F)cc2)cc(C(=O)NC2CCCCCC2)c1OC` was tested. Which Ki (Cannabinoid receptor 1) did it give?
Its Ki is 6.11 µM.

And the Ki (Cannabinoid receptor 2 [1])?
Its Ki is 0.166 µM.

What about the Selectivity Index (CHO) of the same molecule?
Its Selectivity Index is 36.8.

And the Activity (Cannabinoid receptor 2 [3])?
The Activity was “Active”.

With `COc1c(Cc2ccc(F)cc2)cc(-c2ccc(F)cc2)cc1C(=O)N[C@H]1CC[C@H](C)CC1` as the molecule, how does the Ki (Cannabinoid receptor 1) read?
The Ki was 1.85 µM.

And the Ki (Cannabinoid receptor 2 [1])?
Its Ki is 1.09 µM.

And the Selectivity Index (CHO)?
Its Selectivity Index is 1.7.

With `C=CCc1cc(NC(=O)CCCCCCCCCCCCCCCCC)c(O)c(-c2ccc(OC)c(CC=C)c2)c1` as the molecule, how does the Ki (Cannabinoid receptor 2 [1]) read?
Its Ki is over 10 µM.

How did the Activity (Cannabinoid receptor 2 [3]) turn out when `C=CCc1ccc(O)c(-c2ccc(O)c(CC=C)c2)c1` was run?
Its Activity is “Active”.

And the Neutral antagonist activity (Cannabinoid receptor 2 [4])?
The Neutral antagonist activity was “Active”.

Which results are given for `C=CCc1ccc(OC)c(-c2ccc(OC)c(CC=C)c2)c1`?
Ki (Cannabinoid receptor 2 [1]): 1.38 µM; Activity (Cannabinoid receptor 2 [2]): Active

For `C=CCc1ccc(O)c(-c2ccc(OC)c(CC=C)c2)c1`, which Activity (Cannabinoid receptor 2 [2]) is on record?
The Activity was “Active”.

Which Ki (Cannabinoid receptor 2 [1]) does the source give for `C=CCc1cc(NC(C)=O)c(O)c(-c2ccc(OC)c(CC=C)c2)c1` here?
The Ki was over 10 µM.

With `COc1c(Cc2ccc(F)cc2)cc(-c2ccccc2)cc1C(=O)N[C@H]1CC[C@H](C)CC1` as the molecule, how does the Ki (Cannabinoid receptor 1) read?
The Ki was 3.09 µM.

And the Ki (Cannabinoid receptor 2 [1])?
Its Ki is 2.62 µM.

And the Selectivity Index (CHO)?
Its Selectivity Index is 1.2.

What does the source list for `C=CCc1ccc(O)c(-c2ccc(OCCCC)c(CC=C)c2)c1`?
Ki (Cannabinoid receptor 1): 0.615 µM; Ki (Cannabinoid receptor 2 [1]): 0.103 µM; Neutral antagonist activity (Cannabinoid receptor 2 [4]): Active

Which Ki (Cannabinoid receptor 1) does the source give for `COc1c(Cc2ccc(F)cc2)cc(-c2ccccc2)cc1C(=O)N[C@H]1CC[C@@H](C)CC1` here?
Its Ki is 0.826 µM.

What about the Ki (Cannabinoid receptor 2 [1]) of the same molecule?
The Ki was 1.11 µM.

What about the Selectivity Index (CHO) of the same molecule?
Its Selectivity Index is 1.3.

For `COc1c(Cc2ccc(F)cc2)cc(-c2ccc(F)cc2)cc1C(=O)N[C@H]1CC[C@@H](C)CC1`, which Ki (Cannabinoid receptor 1) is on record?
Its Ki is 1.07 µM.

What about the Ki (Cannabinoid receptor 2 [1]) of the same molecule?
Its Ki is 0.337 µM.

What about the Selectivity Index (CHO) of the same molecule?
Its Selectivity Index is 3.2.

With `COc1c(Cc2ccccc2)cc(-c2ccccc2)cc1C(=O)N[C@H]1CC[C@H](C)CC1` as the molecule, how does the Ki (Cannabinoid receptor 1) read?
Its Ki is 2.5 µM.

And the Ki (Cannabinoid receptor 2 [1])?
Its Ki is 4.81 µM.

`COc1ccc(-c2cc(Cc3ccc(F)cc3)c(OC)c(C(=O)N[C@H]3CC[C@H](C)CC3)c2)cc1` was tested. Which Ki (Cannabinoid receptor 1) did it give?
The Ki was 1.17 µM.

And the Ki (Cannabinoid receptor 2 [1])?
The Ki was 0.811 µM.

And the Selectivity Index (CHO)?
Its Selectivity Index is 1.4.

For `C=CCc1ccc(OCCCC)c(-c2ccc(O)c(CC=C)c2)c1`, which Activity (Cannabinoid receptor 2 [5]) is on record?
Its Activity is “Active”.

What does the source list for `CCCCc1cc(-c2ccc(F)cc2)cc(C(=O)N[C@H]2CC[C@H](C)CC2)c1OC`?
Ki (Cannabinoid receptor 1): ≥ 10 µM; Ki (Cannabinoid receptor 2 [1]): 1.76 µM; Selectivity Index (CHO): > 5.8

Which results are given for `COc1ccc(-c2cc(C)c(OC)c(C(=O)NC3CCCCCC3)c2)cc1`?
Ki (Cannabinoid receptor 1): 16.5 µM; Ki (Cannabinoid receptor 2 [1]): 2.74 µM; Selectivity Index (CHO): 6.1; Neutral antagonist activity (Cannabinoid receptor 2 [4]): Active

With `COc1ccc(-c2cc(Cc3ccc(F)cc3)c(OC)c(C(=O)NC3CCCCCC3)c2)cc1` as the molecule, how does the Ki (Cannabinoid receptor 1) read?
The Ki was at least 10 µM.

What about the Ki (Cannabinoid receptor 2 [1]) of the same molecule?
The Ki was at least 10 µM.

What about the Neutral antagonist activity (Cannabinoid receptor 2 [4]) of the same molecule?
The Neutral antagonist activity was “Active”.

Which results are given for `C=CCc1ccc(OCCCC)c(-c2ccc(OCCCC)c(CC=C)c2)c1`?
Ki (Cannabinoid receptor 2 [1]): 1.78 µM; Neutral antagonist activity (Cannabinoid receptor 2 [4]): Active

Which Ki (Cannabinoid receptor 1) does the source give for `CCCCc1cc(-c2ccccc2)cc(C(=O)N[C@H]2CC[C@@H](C)CC2)c1OC` here?
The Ki was 0.549 µM.

What about the Ki (Cannabinoid receptor 2 [1]) of the same molecule?
Its Ki is 1.26 µM.

`COc1c(C)cc(-c2ccccc2)cc1C(=O)NC1CCCCCC1` was tested. Which Ki (Cannabinoid receptor 1) did it give?
Its Ki is 0.656 µM.

And the Ki (Cannabinoid receptor 2 [1])?
The Ki was 0.148 µM.

And the Selectivity Index (CHO)?
Its Selectivity Index is 4.5.

What about the Activity (Cannabinoid receptor 2 [2]) of the same molecule?
Its Activity is “Active”.

Which Ki (Cannabinoid receptor 1) does the source give for `COc1ccc(-c2cc(Cc3ccc(F)cc3)c(OC)c(C(=O)N[C@H]3CC[C@@H](C)CC3)c2)cc1` here?
The Ki was 0.38 µM.

And the Ki (Cannabinoid receptor 2 [1])?
Its Ki is 0.196 µM.

And the Selectivity Index (CHO)?
The Selectivity Index was 2.

What about the inhibition (Cannabinoid receptor 2 [6]) of the same molecule?
Its inhibition is “Dose-dependent effect”.

What about the inhibition (Cannabinoid receptor 2 [7]) of the same molecule?
Its inhibition is “inactive”.

`COc1c(Cc2ccccc2)cc(-c2ccccc2)cc1C(=O)N[C@H]1CC[C@@H](C)CC1` was tested. Which Ki (Cannabinoid receptor 2 [1]) did it give?
The Ki was 2.67 µM.

Which results are given for `CCCCc1cc(-c2ccc(OC)cc2)cc(C(=O)NC2CCCCCC2)c1OC`?
Ki (Cannabinoid receptor 2 [1]): 0.249 µM; Neutral antagonist activity (Cannabinoid receptor 2 [4]): Active; inhibition (Cannabinoid receptor 2 [8]): Active; inhibition (Cannabinoid receptor 2 [9]): Active

For `CCCCc1cc(-c2ccccc2)cc(C(=O)NC2CCCCCC2)c1OC`, which Ki (Cannabinoid receptor 1) is on record?
The Ki was 1.86 µM.

What about the Ki (Cannabinoid receptor 2 [1]) of the same molecule?
Its Ki is 0.352 µM.

What about the Selectivity Index (CHO) of the same molecule?
Its Selectivity Index is 5.3.

What about the Activity (Cannabinoid receptor 2 [3]) of the same molecule?
Its Activity is “Active”.

What does the source list for `COc1c(Cc2ccccc2)cc(-c2ccccc2)cc1C(=O)NC1CCCCCC1`?
Ki (Cannabinoid receptor 1): 1.56 µM; Ki (Cannabinoid receptor 2 [1]): 0.594 µM; Selectivity Index (CHO): 2.6; Activity (Cannabinoid receptor 2 [3]): Active

`CCCCc1cc(-c2ccc(F)cc2)cc(C(=O)N[C@H]2CC[C@@H](C)CC2)c1OC` was tested. Which Ki (Cannabinoid receptor 1) did it give?
Its Ki is 2.52 µM.

What about the Ki (Cannabinoid receptor 2 [1]) of the same molecule?
Its Ki is 1.41 µM.

What about the Selectivity Index (CHO) of the same molecule?
Its Selectivity Index is 1.8.
